Results reported in patent US8148375B2, “(Cyclopropylphenyl)phenyloxamides, method for the production thereof, and use of same as a medicament” (Sanofi-Aventis, priority 2007, dated 2012).
pEC50: −log10 of the molar value.

Target: T1, GPCR GPR40 (Homo sapiens, UniProt O14842)
T1 construct: expressed in transfected cells; host or cells: HEK293
Experiment: In-vitro FLIPR assay with recombinant cells which express the GPCR GPR40
Type: cell-based
Conditions: agonist-induced intracellular Ca2+ change in recombinant HEK293 cells expressing GPR40; relative to 10 μM linoleic acid = 100%
Experimental: In-vitro FLIPR Assay with Recombinant Cells which Express the GPCR GPR40
Function-testing assays were carried out by means of the FLIPR technique (“fluorescence imaging plate reader”, Molecular Devices Corp.). For this purpose, agonist-induced alterations in the intracellular concentration of Ca^2+ in recombinant HEK293 cells which express the GPCR GPR40 were determined.
For the investigations, cells were seeded in 96-well microtiter plates (60 000 cells/well) and left to grow overnight. The medium was removed and the cells were incubated in buffer which contained the fluorescent dye Fluo-4. After this loading with dye, the cells were washed, test substance was added and alterations in the intracellular Ca^2+ concentration were measured in the FLIPR instrument. Results have been depicted as percentage alteration relative to the control (0%: no test substance added; 100%: 10 μM reference agonist linoleic acid added) used to calculate dose/activity plots and EC50 values were determined.

T1 sequence (O14842 whole entry): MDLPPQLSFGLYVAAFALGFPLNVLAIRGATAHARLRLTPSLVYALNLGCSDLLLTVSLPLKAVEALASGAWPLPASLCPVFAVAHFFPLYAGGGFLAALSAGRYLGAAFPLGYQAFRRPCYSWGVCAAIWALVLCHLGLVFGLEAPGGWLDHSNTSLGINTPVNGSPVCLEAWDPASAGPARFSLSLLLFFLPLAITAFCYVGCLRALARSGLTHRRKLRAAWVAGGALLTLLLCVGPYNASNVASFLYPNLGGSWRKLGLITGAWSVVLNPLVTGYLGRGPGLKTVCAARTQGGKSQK

| pEC50 | Compound |
| --- | --- |
| 6.15 | O=C(Nc1ccc(C2CC2C(=O)O)cc1)C(=O)Nc1ccc(Cl)cc1C(F)(F)F (centres unmarked) [Example 2] |
| 6.10 | O=C(Nc1ccc(C2CC2C(=O)O)cc1)C(=O)Nc1cccc(Cl)c1Cl (centres unmarked) [Example 3] |
